Laboratory results taken from patent US7094807B2, “Substituted aryl thioureas and related compounds; inhibitors of viral replication” (Achillion Pharmaceuticals, Inc., priority 2002, dated 2006).

Test system: HCV replicon
Assay: HCV replicon assay (NPT ELISA in HCV replicon-containing cells)
Type: cell-based
Settings: Hepatitis C virus, 72 h; HCV replicon-containing Huh-7 cells; three days incubation; read-out: EC50 for inhibition of replication of the HCV replicon
Protocol: The compounds claimed herein were tested for the ability to inhibit viral replication of the Hepatitis C replicon in cultured cells in which the HCV replicon construct has been incorporated. The HCV replicon system was described by Bartenschlager, et. al (Science, 285, pp. 110-113 (1999)). The replicon system is predictive of in vivo anti-HCV activity; compounds that are active in humans uniformly evidence activity in the replicon assay.
In this assay HCV replicon containing cells are treated with different concentrations of the test compound to ascertain the ability of the test compound to suppress replication of the HCV replicon. As a positive control, HCV replicon-containing cells are treated with different concentrations of interferon alpha, a known inhibitor of HCV replication. The replicon assay system includes Neomycin Phosphotransferase (NPT) as a component of the replicon itself in order to detect the transcription of replicon gene products in the host cell. Cells in which the HCV replicon is actively replicating have high levels of NPT; the level of NPT is proportional to HCV replication. […] The NPT level of each sample is measured using a captured ELISA.
A protocol for testing compounds for the ability to inhibit viral replication of the Hepatitis C replicon cultured cells in which the replicon construct has been incorporated, follows.
The HCV replicon contains, 5-′3′, the HCV-IRES, the neomycin phosphotransferase (neo) gene, the IRES of encephalomyocarditis virus, which directs translation of HCV sequences NS3 to NS5B, and the 3′-NTR. The sequence of the HCV replicon has been deposited in GenBank (Accession no. AJ242652).
The replicon is transfected into Huh-7 cells using standard methods such as electroporation.
The equipment and materials include, but are not limited to, Huh-7 HCV replicon-containing cells, maintenance media (DMEM (Dulbecco's modified Eagle media) supplemented with 10% FBS, L-glutamine, non-essential amino acids, penicillin (100 units/ml), streptomycin (100 micrograms/ml), and 500 micrograms/ml of Geneticin G418), screening media (DMEM supplemented with 10% FBS, L-glutamine, and non-essential amino acid, penicillin (100 units/ml) and streptomycin (100 micrograms/ml)), 96 well tissue culture plates (flat bottom), 96 well plates (U bottom for drug dilution), Interferon alpha for positive control, fixation reagent (such as methanol: acetone), primary antibody (rabbit anti-NPTII), secondary antibody: Eu-N1 l, and enhancement solution.
HCV replicon-containing cells are rinsed with once PBS once; 2 mls of trypsin is added. Cells are incubated at 37° C. in a 5% CO2 incubator for 3-5 minutes. 10 mls of complete medium is added to stop the reaction. Cells are blown gently, put into a 15 ml tube, and spun at 1200 rpm for four minutes. The trypsin/medium solution is removed and 5 mls of medium (500 ml DMEM (high glucose)) from BRL catalog #12430-054; 50 mls 10% FBS, […] (50 mg/ml, BRL 10131-035), 5 ml MEM non-essential amino acid (100×BRL #11140-050) and 5 ml pen-strep (BRL #15140-148) is added. The cells and media are mixed carefully
Cells are plated with screening medium (500 ml DMEM (BRL #21063-029), 50 ml FBS (BRL #10082-147) and 5 ml MEM non-essential amino acid (BRL #11140-050) at 6000-7500 cells/100 μl/well of 96 well plate (6-7.5×10^5 cells/10 ml/plate). Plates are placed into 37° C. 5% CO2 incubator overnight.
The following morning, drugs (test compounds or interferon alpha) are diluted in 96 well U bottom plates with media or DMSO/media, depending on the final concentration chosen for screening. Generally for 6 concentrations of each test compounds ranging from 10 micromolar to 0.03 micromolar are applied. 100 μl of the test compound dilution is placed in wells of the 96 well plate containing the HCV replicon cells. Media without drug is added to some wells as a negative controls. DMSO is known to affect cell growth. […]

Structure (SMILES)	EC50
O=C(NC(=S)Nc1cccc(OCc2ccccc2)c1)C1Cc2ccccc2O1 (stereo not shown) [Compound 39, 1-(3-Benzyloxy-phenyl)-3-(2,3-dihydro-benzofuran-2-carbonyl)-thiourea]	< 30 µM
O=C(NC(=S)Nc1cccc(OCc2ccccc2)c1)C1COc2ccccc2O1 (stereo not shown) [Compound 40, 1-(3-Benzyloxy-phenyl)-3-(2,3-dihydro-benzo[1,4]dioxine-2-carbonyl)-thiourea]	< 30 µM
O=C(NC(=S)Nc1cccc(OCc2ccccc2)c1)C1CCc2ccccc2O1 (stereo not shown) [Compound 41, 1-(3-Benzyloxy-phenyl)-3-(chroman-2-carbonyl)-thiourea]	< 30 µM
O=C(NC(=S)Nc1cccc(OCc2ccccc2)c1)c1ccc2ccccc2n1 [Compound 42, 1-(3-Benzyloxy-phenyl)-3-(quinoline-2-carbonyl)-thiourea]	< 30 µM
